{"source": "patent US10898539B2", "about": "“Process for the synchronization of ovulation for timed breeding without heat detection” (priority 2003, dated 2021)", "format_in_all_cases": "in vivo, swine", "key": {"[1]": {"tested_on": "postpartum sows", "assay": "Litter size after deslorelin treatment in postpartum sows at three farm sites (Example 4)", "excerpt": "(§1) Postpartum sows were randomly distributed into three different groups comprised of Controls, Treatment 1, and Treatment 2, with the exception of Site 3, which was divided into two groups, Control and Treatment 2. Control sows were detected for estrus following weaning, and bred following the normal standard operating procedures for the farms on which they resided. Treatment 1 sows were detected for estrus following weaning, and received a 50 mcg dose of deslorelin in the morning when standing and were bred by AI 4 hours later and again at 24+/−2 hours later. Treatment 2 sows received a 50 mcg dose of deslorelin in SAIB at 96 or 120 hours post-weaning and were bred with a single insemination 28+/−2 hours later with no regard to estrus detection."}, "[2]": {"tested_on": "postpartum sows", "assay": "Pregnancy rate after deslorelin treatment in sows, summary of Tables 2-5", "description": "as §1, with “Approximately 170 postpartum sows were randomly divided into two equal groups comprised of controls and treated. Following weaning, the controls were detected for estrus and bred following the normal standard operating procedures for the farms on which they resided. The treated sows received a 50 mcg dose of deslorelin in SAIB at 96 hours post-weaning and were bred with a single insemination 28+/−2 hours later with no regard to estrus detection. The sows were examined for pregnancy by ultrasound at 21 days and slaughtered around 28 days post breeding. The entire reproductive tract was removed and corpora lutea and embryos were counted. Postpartum” for “Postpartum”, “detection. […]” for “detection.”"}, "[3]": {"tested_on": "postpartum sows", "assay": "Single timed injection 96 hours post-weaning and single timed insemination without estrus detection in postpartum sows (Example 3)", "settings": "50 mcg at 96 hours post-weaning", "description": "Approximately 170 postpartum sows were randomly divided into two equal groups comprised of controls and treated. Following weaning, the controls were detected for estrus and bred following the normal standard operating procedures for the farms on which they resided. The treated sows received a 50 mcg dose of deslorelin in SAIB at 96 hours post-weaning and were bred with a single insemination 28+/−2 hours later with no regard to estrus detection. The sows were examined for pregnancy by ultrasound at 21 days and slaughtered around 28 days post breeding. The entire reproductive tract was removed and corpora lutea and embryos were counted."}, "[4]": {"tested_on": "mature postpartum sows", "assay": "Intravulvar injection at estrus detection in mature postpartum sows, AI breeding (Example 2)", "description": "Sows were assigned randomly in blocks of two to either control or to be injected intravulvar with 50 mcg of deslorelin in SAIB at the time of estrus detection for sows first detected in estrus in the a.m. and 12 hours later for those first detected in estrus in the p.m. Treated animals were bred AI upon detected estrus and again 24 hours later if still in estrus. Controls received a saline injection on first detected estrus behavior estrus detection and were bred according to the farm's normal procedures."}, "[5]": {"settings": "Site 1, Treatment 1: 50 mcg when standing in estrus, AI 4 hours later and again at 24+/-2 hours"}, "[6]": {"settings": "Site 1, Treatment 2: 50 mcg in SAIB at 96 or 120 hours post-weaning, single insemination 28+/-2 hours later, no estrus detection"}, "[7]": {"settings": "Site 2, Treatment 1: 50 mcg when standing in estrus, AI 4 hours later and again at 24+/-2 hours"}, "[8]": {"settings": "Site 2, Treatment 2: 50 mcg in SAIB at 96 or 120 hours post-weaning, single insemination 28+/-2 hours later, no estrus detection"}, "[9]": {"settings": "Site 3, Treatment 2: 50 mcg in SAIB at 96 or 120 hours post-weaning, single insemination 28+/-2 hours later, no estrus detection"}, "[10]": {"settings": "slaughtered around 28 days post breeding"}, "[11]": {"settings": "50 μg intravulvar at first estrus detection, AI, AI again if in estrus next day"}}, "data": [{"molecule": "CCNC(=O)[C@@H]1CCCN1C(=O)[C@H](CCCN=C(N)N)NC(=O)[C@H](CC(C)C)NC(=O)[C@@H](Cc1c[nH]c2ccccc12)NC(=O)[C@H](Cc1ccc(O)cc1)NC(=O)[C@H](CO)NC(=O)[C@H](Cc1c[nH]c2ccccc12)NC(=O)[C@H](Cc1cnc[nH]1)NC(=O)[C@@H]1CCC(=O)N1", "note": "[Deslorelin, deslorelin]", "values": [{"measurement": "Avg. Total Live Pigs", "setting": "[1]; [5]", "result": 11.03}, {"measurement": "Avg. Total Pigs Born", "setting": "[1]; [5]", "result": 12.10}, {"measurement": "Avg. Total Live Pigs", "setting": "[1]; [6]", "result": 11.24}, {"measurement": "Avg. Total Pigs Born", "setting": "[1]; [6]", "result": 12.37}, {"measurement": "Avg. Total Live Pigs", "setting": "[1]; [7]", "result": 10.25}, {"measurement": "Avg. Total Pigs Born", "setting": "[1]; [7]", "result": 11.21}, {"measurement": "Avg. Total Live Pigs", "setting": "[1]; [8]", "result": 10.02}, {"measurement": "Avg. Total Pigs Born", "setting": "[1]; [8]", "result": 10.88}, {"measurement": "Avg. Total Live Pigs", "setting": "[1]; [9]", "result": 10.27}, {"measurement": "Avg. Total Pigs Born", "setting": "[1]; [9]", "result": 11.09}, {"measurement": "litter sizes (in words)", "setting": "[1]; Tables 3-5, regardless of estrus detection", "result": "normal litter sizes"}, {"measurement": "pregnancy rates (in words)", "setting": "[2]; Table 6", "result": "normal pregnancy rates"}, {"measurement": "Number Pregnant", "setting": "[2]; Treatment 2 (timed injection, single timed insemination), 250 sows in group, data of Tables 2-5 summarized", "result": 177}, {"measurement": "% Pregnant", "setting": "[2]; Treatment 2 (timed injection, single timed insemination), data of Tables 2-5 summarized", "result": 70.80, "unit": "%"}, {"measurement": "Pregnancy Rate", "setting": "[3]; single insemination 28+/-2 hours later, no estrus detection", "result": 71, "unit": "%"}, {"measurement": "Sows Pregnant", "setting": "[3]; single insemination 28+/-2 hours later, 84 sows in group", "result": 60}, {"measurement": "Embryo Survival", "setting": "[3]; [10]", "result": 64, "unit": "%"}, {"measurement": "Live Embryos", "setting": "[3]; [10]", "result": 13.4}, {"measurement": "Length of Estrus", "setting": "[4]; [11]", "result": "40.81 (n = 69) Hrs."}, {"measurement": "Pregnancy Rate", "setting": "[4]; [11]", "result": "91% (n = 75)"}, {"measurement": "pregnancy rates, Control versus Treated groups (in words)", "setting": "[4]; 50 mcg intravulvar at estrus detection", "result": "no significant difference"}]}]}
